From ChEMBL document CHEMBL3137667, “[Drug-induced liver injury; fourteenth updated edition of the bibliographic database of liver injuries and related drugs]” (Gastroenterol Clin Biol, 2004)

Legend:
[1] = human
[2] = human; remark: listed apart in the source
[3] = human, serum
[4] = human; remark: listed apart in the source
[5] = human; remark: listed apart in the source
[6] = Highest frequency of moderate liver toxicity observed during clinical trials, expressed as a percentage. [column '% BIOL' in source]; settings: human
[7] = human; remark: listed apart in the source
[8] = human; remark: listed apart in the source
[9] = human; remark: listed apart in the source
[10] = human; remark: listed apart in the source
[11] = human, serum, 4383 h
[12] = human, serum; remark: listed apart in the source
[13] = human; remark: listed apart in the source
[14] = Highest frequency of acute liver toxicity observed during clinical trials, expressed as a percentage. [column '% AIGUE' in source]; settings: human
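Throughout, for Hepatotoxicity (association with vascular disease): count of indexed literature references reporting vascular liver injury in humans, e.g. peliosis hepatitis, hepatic veno-occlusive disease or Budd-Chiari syndrome.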
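Throughout, for Hepatotoxicity (benign tumour): value is a count of indexed literature references citing a benign tumour confirmed by histopathology.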
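Throughout, for Hepatotoxicity (choleostasis): human cholestatic liver injury, shown by histopathology or by peak ALT or AST elevation over alkaline phosphatase ratio below 2, value counts indexed literature reports.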
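Throughout, for Hepatotoxicity (chronic liver disease): chronic liver injury confirmed by histopathology or persistently raised serum aminotransferase activity beyond 6 months, value given as the count of indexed literature references.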
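Throughout, for Hepatotoxicity (cirrhosis): value is a count of indexed literature references reporting cirrhosis confirmed by histopathology.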
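Throughout, for Hepatotoxicity (cytolytic): human cytolytic liver injury, shown by histopathology or by a ratio above 5 of peak ALT or AST elevation to alkaline phosphatase elevation, value counts indexed references.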
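Throughout, for Hepatotoxicity (granulomatous hepatitis): value is a count of indexed literature references reporting granulomatous liver disease confirmed by histopathology.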
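Throughout, for Hepatotoxicity (malignant tumour): malignant tumour confirmed by histopathology, value gives the count of indexed literature references reporting it.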
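Throughout, for Hepatotoxicity (severe hepatitis): human clinical data: severe hepatitis, meaning potentially life-threatening liver failure or clinically observed cases, the value counts how many indexed literature references report it.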
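Throughout, for Hepatotoxicity (steatosis): steatosis confirmed by histopathology, value is the count of indexed references.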

OC(CCCN1CCCCC1)(c1ccccc1)c1ccccc1 [DIPHENIDOL]
Hepatotoxicity (association with vascular disease) [1]: 0
Hepatotoxicity (severe hepatitis) [2]: 0
Hepatotoxicity (acute) [3]: 1
Hepatotoxicity (granulomatous hepatitis) [4]: 0
Hepatotoxicity (steatosis) [5]: 0
Hepatotoxicity (moderate) [6]: 0%
Hepatotoxicity (choleostasis) [7]: 0
Hepatotoxicity (cytolytic) [8]: 0
Hepatotoxicity (benign tumour) [9]: 0
Hepatotoxicity (malignant tumour) [10]: 0
Hepatotoxicity (chronic liver disease) [11]: 0
Hepatotoxicity (moderate) [12]: 0
Hepatotoxicity (cirrhosis) [13]: 0
Hepatotoxicity (acute) [14]: 0%

CCC(C)(C)NCC(O)COc1ccccc1C(=O)CCc1ccccc1 (centres undefined) [DIPRAFENONE]
Hepatotoxicity (association with vascular disease) [1]: 0
Hepatotoxicity (severe hepatitis) [2]: 0
Hepatotoxicity (acute) [3]: 1
Hepatotoxicity (granulomatous hepatitis) [4]: 0
Hepatotoxicity (steatosis) [5]: 0
Hepatotoxicity (moderate) [6]: 3.7%
Hepatotoxicity (choleostasis) [7]: 1
Hepatotoxicity (cytolytic) [8]: 0
Hepatotoxicity (benign tumour) [9]: 0
Hepatotoxicity (malignant tumour) [10]: 0
Hepatotoxicity (chronic liver disease) [11]: 0
Hepatotoxicity (moderate) [12]: 3
Hepatotoxicity (cirrhosis) [13]: 0
Hepatotoxicity (acute) [14]: 1.6%

CC[C@H]1OC(=O)[C@H](C)[C@@H](O[C@H]2C[C@@](C)(OC)[C@@H](O)[C@H](C)O2)[C@H](C)[C@@H](O[C@@H]2O[C@H](C)C[C@H](N(C)C)[C@H]2O)[C@](C)(O)C[C@@H](C)[C@@H]2N[C@@H](COCCOC)O[C@H]([C@H]2C)[C@]1(C)O [DIRITHROMYCIN]
Hepatotoxicity (association with vascular disease) [1]: 0
Hepatotoxicity (severe hepatitis) [2]: 0
Hepatotoxicity (acute) [3]: 0
Hepatotoxicity (granulomatous hepatitis) [4]: 0
Hepatotoxicity (steatosis) [5]: 0
Hepatotoxicity (moderate) [6]: 28.6%
Hepatotoxicity (choleostasis) [7]: 0
Hepatotoxicity (cytolytic) [8]: 0
Hepatotoxicity (benign tumour) [9]: 0
Hepatotoxicity (malignant tumour) [10]: 0
Hepatotoxicity (chronic liver disease) [11]: 0
Hepatotoxicity (moderate) [12]: 3
Hepatotoxicity (cirrhosis) [13]: 0
Hepatotoxicity (acute) [14]: 0%

O=C(O[C@@H]1C[C@@H]2C[C@H]3C[C@H](C1)N2CC3=O)c1c[nH]c2ccccc12 [DOLASETRON]
Hepatotoxicity (association with vascular disease) [1]: 0
Hepatotoxicity (severe hepatitis) [2]: 0
Hepatotoxicity (acute) [3]: 0
Hepatotoxicity (granulomatous hepatitis) [4]: 0
Hepatotoxicity (steatosis) [5]: 0
Hepatotoxicity (moderate) [6]: 6.7%
Hepatotoxicity (choleostasis) [7]: 0
Hepatotoxicity (cytolytic) [8]: 0
Hepatotoxicity (benign tumour) [9]: 0
Hepatotoxicity (malignant tumour) [10]: 0
Hepatotoxicity (chronic liver disease) [11]: 0
Hepatotoxicity (moderate) [12]: 1
Hepatotoxicity (cirrhosis) [13]: 0
Hepatotoxicity (acute) [14]: 0%

COc1cc2nc(N3CCN(C(=O)C4COc5ccccc5O4)CC3)nc(N)c2cc1OC (centres undefined) [DOXAZOSIN]
Hepatotoxicity (association with vascular disease) [1]: 0
Hepatotoxicity (severe hepatitis) [2]: 0
Hepatotoxicity (acute) [3]: 0
Hepatotoxicity (granulomatous hepatitis) [4]: 0
Hepatotoxicity (steatosis) [5]: 0
Hepatotoxicity (moderate) [6]: 2.9%
Hepatotoxicity (choleostasis) [7]: 0
Hepatotoxicity (cytolytic) [8]: 0
Hepatotoxicity (benign tumour) [9]: 0
Hepatotoxicity (malignant tumour) [10]: 0
Hepatotoxicity (chronic liver disease) [11]: 0
Hepatotoxicity (moderate) [12]: 2
Hepatotoxicity (cirrhosis) [13]: 0
Hepatotoxicity (acute) [14]: 0%

CC/C(=C(/c1ccc(OCCN(C)C)cc1)c1cccc(O)c1)c1ccccc1 [DROLOXIFENE]
Hepatotoxicity (association with vascular disease) [1]: 0
Hepatotoxicity (severe hepatitis) [2]: 0
Hepatotoxicity (acute) [3]: 0
Hepatotoxicity (granulomatous hepatitis) [4]: 0
Hepatotoxicity (steatosis) [5]: 0
Hepatotoxicity (moderate) [6]: 6.6%
Hepatotoxicity (choleostasis) [7]: 0
Hepatotoxicity (cytolytic) [8]: 0
Hepatotoxicity (benign tumour) [9]: 0
Hepatotoxicity (malignant tumour) [10]: 0
Hepatotoxicity (chronic liver disease) [11]: 0
Hepatotoxicity (moderate) [12]: 4
Hepatotoxicity (cirrhosis) [13]: 0
Hepatotoxicity (acute) [14]: 0%

CCC(Cc1cnc2nc(N)nc(N)c2n1)c1ccc(C(=O)N[C@@H](CCC(=O)O)C(=O)O)cc1 (some centres undefined) [EDATREXATE]
Hepatotoxicity (association with vascular disease) [1]: 0
Hepatotoxicity (severe hepatitis) [2]: 0
Hepatotoxicity (acute) [3]: 2
Hepatotoxicity (granulomatous hepatitis) [4]: 0
Hepatotoxicity (steatosis) [5]: 0
Hepatotoxicity (moderate) [6]: 30%
Hepatotoxicity (choleostasis) [7]: 0
Hepatotoxicity (cytolytic) [8]: 2
Hepatotoxicity (benign tumour) [9]: 0
Hepatotoxicity (malignant tumour) [10]: 0
Hepatotoxicity (chronic liver disease) [11]: 0
Hepatotoxicity (moderate) [12]: 8
Hepatotoxicity (cirrhosis) [13]: 0
Hepatotoxicity (acute) [14]: 3.2%

NCCCC(N)(C(=O)O)C(F)F (centres undefined) [EFLORNITHINE]
Hepatotoxicity (association with vascular disease) [1]: 0
Hepatotoxicity (severe hepatitis) [2]: 0
Hepatotoxicity (acute) [3]: 0
Hepatotoxicity (granulomatous hepatitis) [4]: 0
Hepatotoxicity (steatosis) [5]: 0
Hepatotoxicity (moderate) [6]: 0%
Hepatotoxicity (choleostasis) [7]: 0
Hepatotoxicity (cytolytic) [8]: 0
Hepatotoxicity (benign tumour) [9]: 0
Hepatotoxicity (malignant tumour) [10]: 0
Hepatotoxicity (chronic liver disease) [11]: 0
Hepatotoxicity (moderate) [12]: 1
Hepatotoxicity (cirrhosis) [13]: 0
Hepatotoxicity (acute) [14]: 0%

COc1ccc(C(=O)Nc2ccccc2CCC2CCCCN2C)cc1 (centres undefined) [ENCAINIDE]
Hepatotoxicity (association with vascular disease) [1]: 0
Hepatotoxicity (severe hepatitis) [2]: 0
Hepatotoxicity (acute) [3]: 1
Hepatotoxicity (granulomatous hepatitis) [4]: 0
Hepatotoxicity (steatosis) [5]: 0
Hepatotoxicity (moderate) [6]: 0%
Hepatotoxicity (choleostasis) [7]: 0
Hepatotoxicity (cytolytic) [8]: 0
Hepatotoxicity (benign tumour) [9]: 0
Hepatotoxicity (malignant tumour) [10]: 0
Hepatotoxicity (chronic liver disease) [11]: 0
Hepatotoxicity (moderate) [12]: 0
Hepatotoxicity (cirrhosis) [13]: 0
Hepatotoxicity (acute) [14]: 0%

CSc1ccc(C(=O)c2[nH]c(=O)[nH]c2C)cc1 [ENOXIMONE]
Hepatotoxicity (association with vascular disease) [1]: 0
Hepatotoxicity (severe hepatitis) [2]: 0
Hepatotoxicity (acute) [3]: 0
Hepatotoxicity (granulomatous hepatitis) [4]: 0
Hepatotoxicity (steatosis) [5]: 0
Hepatotoxicity (moderate) [6]: 6%
Hepatotoxicity (choleostasis) [7]: 0
Hepatotoxicity (cytolytic) [8]: 0
Hepatotoxicity (benign tumour) [9]: 0
Hepatotoxicity (malignant tumour) [10]: 0
Hepatotoxicity (chronic liver disease) [11]: 0
Hepatotoxicity (moderate) [12]: 3
Hepatotoxicity (cirrhosis) [13]: 0
Hepatotoxicity (acute) [14]: 0%

CN1C[C@H](C(=O)N[C@]2(C)O[C@@]3(O)[C@@H]4CCCN4C(=O)[C@H](Cc4ccccc4)N3C2=O)C=C2c3cccc4[nH]cc(c34)C[C@H]21 [ERGOTAMINE]
Hepatotoxicity (association with vascular disease) [1]: 0
Hepatotoxicity (severe hepatitis) [2]: 0
Hepatotoxicity (acute) [3]: 0
Hepatotoxicity (granulomatous hepatitis) [4]: 0
Hepatotoxicity (steatosis) [5]: 0
Hepatotoxicity (moderate) [6]: 35.7%
Hepatotoxicity (choleostasis) [7]: 0
Hepatotoxicity (cytolytic) [8]: 0
Hepatotoxicity (benign tumour) [9]: 0
Hepatotoxicity (malignant tumour) [10]: 0
Hepatotoxicity (chronic liver disease) [11]: 0
Hepatotoxicity (moderate) [12]: 1
Hepatotoxicity (cirrhosis) [13]: 0
Hepatotoxicity (acute) [14]: 0%
